Assay results reported in publication PMC12640663 (Chemmedchem, 2025).

Key:
PTP1B = settings: cited from earlier work
hPTP1B1–400 = molecular target: T1, hPTP1B1–400 (Homo sapiens, UniProt P18031); assay: PTP1B activity assay, long form hPTP1B1–400 (p‐NPP); type: biochemical; parameters: hPTP1B1–400 (the long form with an intrinsically disordered C‐terminal regulatory domain); settings: for IC50: ± S.D, p‐NPP substrate, 15 min at 37 °C, triplicate
T1 sequence (P18031 1-400): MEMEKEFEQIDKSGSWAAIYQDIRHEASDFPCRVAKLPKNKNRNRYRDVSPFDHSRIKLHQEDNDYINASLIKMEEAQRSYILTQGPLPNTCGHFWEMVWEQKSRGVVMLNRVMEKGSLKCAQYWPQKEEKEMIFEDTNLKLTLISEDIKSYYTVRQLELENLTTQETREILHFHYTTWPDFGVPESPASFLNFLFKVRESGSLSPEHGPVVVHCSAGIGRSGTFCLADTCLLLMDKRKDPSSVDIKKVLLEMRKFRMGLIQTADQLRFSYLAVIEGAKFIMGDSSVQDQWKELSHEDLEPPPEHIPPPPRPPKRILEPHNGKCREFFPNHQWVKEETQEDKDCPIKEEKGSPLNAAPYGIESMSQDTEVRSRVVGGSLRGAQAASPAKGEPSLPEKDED
Description: (§1) The inhibitory activity of PTP1B was assessed using two enzyme variants: hPTP1B1–285 (the short form with an N‐terminal catalytic domain) and hPTP1B1–400 (the long form with an intrinsically disordered C‐terminal regulatory domain). […] According to Coronel‐Tovar et al., the disordered region of the C‐terminal domain plays a crucial role in modulating PTP1B enzymatic activity.^[ [30] ^] […] Different concentrations of the compounds were evaluated to determine their IC50 values (Table 1 ).
(§2) Recombinant human protein tyrosine phosphatase 1B, consisting of 400 and 285 amino acid residues, was used.^[ [35] ^] […] Aliquots of 0–10 µL of the test compounds (triplicate) were taken and incubated for 15 min at 37 °C with 85 µL of Tris buffer solution (50 mM, pH 6.8) containing PTP1B enzyme and 5 µL of p‐nitrophenyl phosphate substrate (p‐NPP, 10 mM). Absorbance was then measured at a wavelength of 405 nm. The inhibitory activity was determined according to Equation (1). (1) % PTP1B=(A405b/A405c)×100 where % PTP1B: Is the percentage of inhibition. A 405c: Is the corrected absorbance of the blank (A 405initial–A 405final). A 405b: Is the corrected absorbance of the compounds (A 405control–A 405compound).

HepG2 cells = assay: Cell viability with crystal violet; type: cell-based; settings: 1 and 25 µM, 24 h
Description: Subsequently, we evaluated the same compounds in a HepG2 insulin‐resistant model.
A 96‐well plate was seeded with 3,000 cells per well and incubated for 24 h. Afterward, the cells were treated with test compounds at various concentrations for 24 h. After incubation, the media was removed, and 100 µL of 1% glutaraldehyde was added for 15 min. Afterward, the liquid was removed, and 50 µL of 0.5% crystal violet (dissolved in 25% methanol) was added for 30 min. The crystal violet staining solution was removed, and the plate was thoroughly washed with tap water. The precipitate was dissolved in a 10% acetic acid solution and mixed for 15 min. The absorbance was then measured at 590 nm using a plate reader (xMark Microplate Spectrophotometer—Bio‐Rad).
Figure S59. Cell viability assessment by crystal violet staining. HepG2 cell viability was evaluated
after treatment with the respective compounds at concentrations of 1 and 25 µM for 24 hours. Bar
graphs represent mean ± SEM.

[1] = parameters: method as in PMID 37628991; settings: cited from earlier work
TCPTP = molecular target: T2, TCPTP (Homo sapiens, UniProt P17706); assay: T‐cell protein tyrosine phosphatase (TCPTP) activity assay (p‐NPP); type: biochemical; settings: for TCPTP inhibition (in words): up to 100 μM; for IC50: ± S.D, assessed up to 100 μM, read-out: TCPTP IC50
T2 sequence (P17706 1-415): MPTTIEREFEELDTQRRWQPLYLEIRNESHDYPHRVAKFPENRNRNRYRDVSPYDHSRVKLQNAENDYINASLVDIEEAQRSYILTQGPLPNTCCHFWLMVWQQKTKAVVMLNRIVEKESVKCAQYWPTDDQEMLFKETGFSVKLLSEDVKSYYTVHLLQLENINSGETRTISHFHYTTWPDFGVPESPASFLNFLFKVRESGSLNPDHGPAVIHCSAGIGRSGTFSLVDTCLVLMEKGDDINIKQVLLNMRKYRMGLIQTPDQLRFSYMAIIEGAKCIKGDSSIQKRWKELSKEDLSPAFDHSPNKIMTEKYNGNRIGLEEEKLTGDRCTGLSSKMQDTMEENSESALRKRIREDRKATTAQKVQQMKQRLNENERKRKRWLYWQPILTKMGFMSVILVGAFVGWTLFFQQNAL
Description: The effectiveness and safety of protein tyrosine phosphatase (PTP) inhibitors depend on their specificity. PTP1B and TCPTP serve different functions: PTP1B is involved in metabolism and cancer, while TCPTP regulates immune function. Inhibiting TCPTP could impact the immune response, whereas inhibiting PTP1B may benefit metabolic diseases without these side effects.^[ [20] ^, [34] ^, [35] ^] […] These compounds were assessed up to 100 μM (Table 1).
TCPTP enzyme reported by Mendoza et al. was used for this assay. […] Aliquots of 0–10 µL (triplicate) of the newly synthesized compounds, positive control, and solvent were taken. These were incubated with 85 µL of enzyme solution (Tris, 50 mM, pH 6.8, TCPTP) and 5 µL of substrate (p‐NPP, 10 mM) for 15 min at 37 °C.

[2] = tested on: streptozotocin‐induced diabetic rats; parameters: method as in PMID 37628991; settings: cited from earlier work
hPTP1B1–285 = molecular target: T3, hPTP1B1–285 (Homo sapiens, UniProt P18031); assay: PTP1B activity assay, short form hPTP1B1–285 (p‐NPP); type: biochemical; settings: ± S.D; p‐NPP substrate, 15 min at 37 °C
T3 construct: hPTP1B1–285 (the short form with an N‐terminal catalytic domain)
T3 sequence (P18031 1-285): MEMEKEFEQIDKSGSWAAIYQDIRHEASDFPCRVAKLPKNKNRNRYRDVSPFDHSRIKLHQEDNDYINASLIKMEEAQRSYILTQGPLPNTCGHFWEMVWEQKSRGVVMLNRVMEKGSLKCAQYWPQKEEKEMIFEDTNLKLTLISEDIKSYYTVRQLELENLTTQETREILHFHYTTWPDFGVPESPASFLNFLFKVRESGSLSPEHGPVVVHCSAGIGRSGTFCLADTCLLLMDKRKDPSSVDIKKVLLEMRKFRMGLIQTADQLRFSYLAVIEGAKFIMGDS
Description: as §1
To do so, these terpenoids were tested against hPTP1B1–285.
as §2

[3] = streptozotocin‐induced diabetic rats

IC50 (hPTP1B1–400)	TCPTP inhibition (in words) (TCPTP)	IC50 (TCPTP)	IC50 (hPTP1B1–285)	fold more potent than the alpha epimer (hPTP1B1–400; beta epimer vs alpha epimer (FC‐114 vs 3c, FC‐122 vs 5c), hPTP1B1–400 IC50)	SMILES	times better potency against PTP1B than 18β‐GA (PTP1B)	type of PTP1B inhibition (PTP1B)	HepG2 cell viability (HepG2 cells)	HepG2 cell viability (HepG2 cells; listed as FC-114)	doses at which safe [1]	antidiabetic activity [2]	insulin levels ([2]; streptozotocin‐induced diabetic rats, compared with glibenclamide)	HDL cholesterol [2, 3]	total cholesterol levels [2, 3]	HepG2 cell viability (HepG2 cells; listed as FC-122)
0.48 ± 0.006 µM	did not inhibit TCPTP	> 100 µM			CC1(C(=O)O)CCC2(C)CCC3(C)C(=CC(=O)C4C5(C)Cc6c([nH]c7ccc(C(F)(F)F)cc67)C(C)(C)C5CCC43C)C2C1 (centres unmarked) [FC‐114]	25 times	noncompetitive inhibitor	did not compromise HepG2 cell viability	No significant differences	below 2000 mg kg^−1	showed antidiabetic activity	increased insulin levels more than glibenclamide	without affecting HDL cholesterol	significantly reduced total cholesterol levels	
1.15 ± 0.04 µM	did not inhibit TCPTP	> 100 µM	25.1 ± 0.85 µM	1.3 fold	Cc1ccc(-n2ncc3c2C(C)(C)C2CCC4(C)C(C(=O)C=C5C6CC(C)(C(=O)O)CCC6(C)CCC54C)C2(C)C3)cc1 (centres unmarked) [FC‐122]	14 times	uncompetitive inhibitor	did not compromise HepG2 cell viability		below 2000 mg kg^−1	showed antidiabetic activity				No significant differences
